The NIST ThermoML archive (doi:10.1016/j.tca.2012.12.008)

Key:
[1] = 101 kPa, Liquid; for viscosity: Capillary tube (Ostwald / Ubbelohde) method; for mass density: Vibrating tube method
[2] = xn = mol fraction of the nth substance listed; conditions: 101 kPa, Liquid; for viscosity: Capillary tube (Ostwald / Ubbelohde) method; for mass density: Vibrating tube method

CCCCCC(C)O (stereo not drawn) [2-heptanol]
[1]
Conditions | mass density [kg/m3] | viscosity [mPa·s]
298.15 K | 813.18 | 5.003
303.15 K | 809.26 | 4.152
308.15 K | 805.01 | 3.478
313.15 K | 801.14 | 2.853

CCCCC(C)O (stereo not drawn) [2-hexanol]
[1]
Conditions | mass density [kg/m3] | viscosity [mPa·s]
298.15 K | 810.14 | 4.101
303.15 K | 806.13 | 3.411
308.15 K | 802.06 | 2.819
313.15 K | 797.96 | 2.219

CCC(C)O (stereo not drawn) [butan-2-ol]
[1]
Conditions | mass density [kg/m3] | viscosity [mPa·s]
298.15 K | 802.7 | 3.105
303.15 K | 798.3 | 2.597
308.15 K | 793.57 | 2.153
313.15 K | 789.15 | 1.734

CCC(C)O (stereo not drawn) [butan-2-ol] + CCC(C)=O
[2], x2 = 0
Conditions | mass density [kg/m3] | viscosity [mPa·s]
298.15 K | 802.7 | 3.105
303.15 K | 798.3 | 2.597
308.15 K | 793.57 | 2.153
313.15 K | 789.15 | 1.734

CCC(C)=O [butanone]
[1]
Conditions | mass density [kg/m3] | viscosity [mPa·s]
298.15 K | 799.48 | 0.381
303.15 K | 794.63 | 0.368
308.15 K | 789.9 | 0.352
313.15 K | 785.52 | 0.339

CCC(C)=O [butanone] + CCCC(C)O
[2], x1 = 1
Conditions | mass density [kg/m3] | viscosity [mPa·s]
298.15 K | 799.48 | 0.381
303.15 K | 794.63 | 0.368
308.15 K | 789.9 | 0.352
313.15 K | 785.52 | 0.339

CCC(C)=O [butanone] + CCCCC(C)O
[2], x1 = 1
Conditions | mass density [kg/m3] | viscosity [mPa·s]
298.15 K | 799.48 | 0.381
303.15 K | 794.63 | 0.368
308.15 K | 789.9 | 0.352
313.15 K | 785.52 | 0.339

CCC(C)=O [butanone] + CCCCCC(C)O
[2], x1 = 1
Conditions | mass density [kg/m3] | viscosity [mPa·s]
298.15 K | 799.48 | 0.381
303.15 K | 794.63 | 0.368
308.15 K | 789.9 | 0.352
313.15 K | 785.52 | 0.339

CCCC(C)O (stereo not drawn) [pentan-2-ol]
[1]
Conditions | mass density [kg/m3] | viscosity [mPa·s]
298.15 K | 805.41 | 3.478
303.15 K | 801.21 | 2.801
308.15 K | 796.64 | 2.335
313.15 K | 792.51 | 1.993

CC(C)O [propan-2-ol]
[1]
Conditions | mass density [kg/m3] | viscosity [mPa·s]
298.15 K | 781.09 | 2.055
303.15 K | 776.77 | 1.788
308.15 K | 771.87 | 1.563
313.15 K | 767.37 | 1.379

CC(C)O [propan-2-ol] + CCC(C)=O
[2], x2 = 0
Conditions | mass density [kg/m3] | viscosity [mPa·s]
298.15 K | 781.09 | 2.055
303.15 K | 776.77 | 1.788
308.15 K | 771.87 | 1.563
313.15 K | 767.37 | 1.379
